Experimental data from PubChem BioAssay AID1963447 (Molecular Pharmacology Branch, DTP, NCI, 2024).
“And” between values parts separate entries of the source, which are not always exact repeats. Equal values may be shown once.

System: 885512-296-R-J2-PDC complex spheroid growth, % test/control
Experiment: Anticancer human tumor 885512-296-R-J2-PDC patient-derived breast carcinoma cell line growth inhibition [Asc]
Conditions: for viability, T/C: stronger effect = lower value
Protocol: Multicellular complex tumor spheroid response to apoptosis pathway targeting inhibitors Alrizomadlin, Pelcitoclax, and Dasminapant in combination with a variety of drugs and investigational agents in selected tumor cell lines
The MDM2 inhibitor alrizomadlin, the Bcl-2/Bcl-xL inhibitor pelcitoclax, and the IAPs inhibitor dasminapant were evaluated both individually and in combination with standard of care and investigational anticancer small molecules within a complex spheroid model of solid tumors. . Complex spheroids include a stromal component modeled by human endothelial cells (HUVEC) and fibroblasts modeled by human mesenchymal stem cells (MSCs). The concentration ranges selected for each drug and investigational agent were based upon clinically achievable concentrations if the clinical Cmax of the agent was known.
Compounds. The drugs and investigational agents: alrizomadlin (APG-115; NSC831270), pelcitoclax (APG-1252; NSC835773), dasminapant (APG-1387;NSC834197), TAK-243 (NSC785004), copanlisib (NSC809693), olaparib (NSC753686), talazoparib (NSC767125), cobimetinib (NSC 768068), eltanexor (KPT-8602, NSC 794443), abemaciclib (NSC 768073), sotorasib (NSC818433), adagrasib (NSC 831453), MRTX-1133 (NSC 836407), Iadademestat (ORY1001, NSC 806812), and RMC-4630 (NSC839698), were obtained from the NCI Developmental Therapeutics Program Chemical Repository. The FDA-approved anticancer drug set is available from the Developmental Therapeutics Program at https://dtp.cancer.gov/organization/dscb/obtaining/available plates.htm. […] The stock solutions were prepared in dimethyl sulfoxide (DMSO, Sigma-Aldrich, St. Louis, MO, cat. D2650) at 800-fold the tested concentration and stored at -70 degrees C prior to their use. All drugs and investigational agents were tested over a range starting from a high concentration at or near the clinical Cmax and decreasing in half-log increments. If the clinical Cmax for an agent had not been determined, the highest concentration tested was 10 microM.
The patient-derived cancer (PDC) cell lines include five colon adenocarcinomas: 186277-243-T-J2-PDC, 616215-338-R-J1-PDC, 439559-082-T-J2-PDC, 463943-066-T-J2-PDC, and 519858-162-T-J1-PDC; three pancreatic carcinomas: 323965-272-R-J2-PDC, 521955-158-R6-J3-PDC, and 521955-158-R2-J5-PDC; two uterine sarcomas: 327498-152-R-J2-PDC and 993429-296-R-J1-PDC; two rhabdomyosarcomas: 755483-174-R-J1-PDC and 772245-204-R-J1-PDC; two soft tissue sarcomas: 126254-015-R-J1-PDC and 494315-158-R-J1-PDC; two malignant fibrous histiocytomas: 317291-083-R-J1-PDC and 596521-263-R-J1-PDC; two breast carcinomas: 171881-019-R-J1-PDC and 885512-296-R-J2-PDC; and one ovarian carcinoma: 6556581-035-R-J-PDC were obtained from the NCI PDMR, (https://pdmr.cancer.gov). The established cell lines HSSY-2 synovial sarcoma (RRID:CVCL 8719), SYO-1 synovial sarcoma (RRID:CVCL_7146), MPNST malignant peripheral neural sheath tumor were obtained from the Sloan Kettering Institute. The following established cell lines were purchased from the American Type Culture Collection (ATCC, Manassas, VA), Sor the received from the NCI repository:, PANC-1 pancreatic carcinoma (CRL-1469, RRID:CVCL_0480), OVCAR-5 ovarian carcinoma (RRID:CVCL_1628), OVCAR-8 ovarian carcinoma (RRID:CVCL_1629), , MCF-7 breast carcinoma (CRL-12584, RRID:CVCL_0031), MDA-MB-231 breast carcinoma (CRL-12532, RRID:CVCL_0062), NCI-H1876 small cell lung carcinoma (CRL-5902, RRID:CVCL_1503), NCI-H510A small cell lung carcinoma (HTB-184, RRID:CVCL_1565), NCI-H1417 (CRL-5869, RRID:CVCL_1469), and NCI-H196 small cell lung carcinoma (CRL-5823, RRID:CVCL_1509). Dr. Peter Houghton (Greehey Children's Cancer Research Institute, University of Texas Health Science Center, San Antonio, TX) provided Rh-18 rhabdomyosarcoma (RRID:CVCL_1659). Pooled donor human umbilical vein endothelial cells (HUVEC, Lonza, cat. CC-2519) and human mesenchymal stem cells (hMSC, Lonza, cat. PT-2501) were purchased from Lonza (Walkersville, MD).
Cell Culture. […]
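Further: spheroids exposed to compounds for seven days.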
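Wherever viability, T/C is given: 100% = DMSO vehicle control wells.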

IC50 (curve of compound)	Compound	viability, T/C (compound 0.0316 µM)	viability, T/C (compound 0.1 µM)	viability, T/C (compound 0.316 µM)	viability, T/C (compound 1 µM)	viability, T/C (compound 10 µM)	viability, T/C (compound 0.00316 µM)	viability, T/C (compound 0.01 µM)	further results
> 10 µM	C#Cc1c(F)ccc2cc(O)cc(-c3ncc4c(N5CC6CCC(C5)N6)nc(OCC56CCCN5CC(F)C6)nc4c3F)c12 (stereo not given)	93.6% and 96.8% and 95.3%	103% (2×) and 91.5%	89.2% and 72.3% and 99.9%	99.7% and 72.6% and 93.5%	97.2% and 80.2% and 71.9%	–	–	viability, T/C (compound 3.16 µM): 101% and 93.8% and 87.5%
2.04 µM and 2.41 µM and 3.23 µM	C=C(F)C(=O)N1CCN(c2nc(OCC3CCCN3C)nc3c2CCN(c2cccc4cccc(Cl)c24)C3)CC1CC#N (stereo not given)	81.9% and 107% and 97.2%	97% and 114% and 90.5%	104% and 102% and 94.4%	97.8% and 113% and 110%	0.17% and 0.15% and 0.14%	–	–	viability, T/C (compound 3.16 µM): 22% and 31.8% and 50.9%
> 10 µM	C=CC(=O)N1CCN(c2nc(=O)n(-c3c(C)ccnc3C(C)C)c3nc(-c4c(O)cccc4F)c(F)cc23)C(C)C1 (stereo not given)	90.3% and 85.9% and 94.9%	104% and 108% and 86.1%	108% and 104% and 90.2%	108% and 124% and 103%	60.6% and 59.6% and 78.4%	–	–	viability, T/C (compound 3.16 µM): 77.3% and 101% and 95.2%
2.83 µM and > 3 µM	CCN1C(C(=O)NC23CCC(C(=O)O)(CC2)CC3)C(c2cccc(Cl)c2F)C2(C(=O)Nc3cc(Cl)ccc32)C12CCCCC2 (stereo not given)	–	–	–	–	–	–	–	viability, T/C (compound 0.00949 µM): 94.5% and 78.9%; viability, T/C (compound 0.0949 µM): 95.6% [middle of 15 runs]; viability, T/C (compound 0.949 µM): 71.9% [middle of 15 runs]; viability, T/C (compound 3 µM): 46.6% [middle of 15 runs]
> 1 µM	CCN1CCN(Cc2ccc(Nc3ncc(F)c(-c4cc(F)c5nc(C)n(C(C)C)c5c4)n3)nc2)CC1	92.8% and 77.8% and 104%	80.7% and 77.2% and 93%	79.6% and 71.2% and 79.3%	61.1% and 65% and 73.3%	–	89.4% and 83.8% and 88.3%	107% and 91.6% and 85.9%	–
> 1 µM	CNC(C)C(=O)NC1CN(S(=O)(=O)c2cccc(S(=O)(=O)N3CCC4CCC(C(=O)NC(c5ccccc5)c5ccccc5)N4C(=O)C(NC(=O)C(C)NC)C3)c2)CCC2CCC(C(=O)NC(c3ccccc3)c3ccccc3)N2C1=O (stereo not given)	–	–	–	–	–	84.1% and 81%	–	IC50 (compound alone, run of 10/03/2022): > 1 µM
0.249 µM and 0.255 µM and 0.37 µM	COc1c(OCCCN2CCOCC2)ccc2c3n(c(=NC(=O)c4cnc(N)nc4)nc12)CCN3	86.8% and 80.5% and 89.4%	74.3% and 76% and 89%	43.6% and 43.9% and 56.3%	6.01% and 5.98% and 9.51%	–	99.3% and 90.1% and 99%	100% and 92.6% and 92%	–
–	Cc1c(S(C)(=O)=O)c(-c2cc(F)cc(N3CCN(c4ccc(NS(=O)(=O)c5ccc(NC(CCN6CCC(C(=O)OCCCP(=O)(O)O)CC6)CSc6ccccc6)c(S(=O)(=O)C(F)(F)F)c5)cc4)CC3)c2)c(-c2ccc(Cl)cc2)n1C(C)C (stereo not given)	–	84.8% [middle of 14 runs]	86.5% [middle of 14 runs]	88.8% [middle of 14 runs]	114% [middle of 14 runs]	–	–	IC50 (compound alone, run of 09/27/2022): > 10 µM
0.408 µM and 0.453 µM and 0.373 µM	Cc1nc(N2CCC3(CC2)COC(C)C3N)c(CO)nc1Sc1ccnc(N)c1Cl (stereo not given)	–	–	–	–	–	–	–	viability, T/C (compound 0.00949 µM): 82.5% and 83.1% and 76%; viability, T/C (compound 0.03 µM): 68.2% and 68.5% and 70.9%; viability, T/C (compound 0.0949 µM): 59.3% and 59.5% and 63.1%; viability, T/C (compound 0.3 µM): 54.2% and 53% and 54%; viability, T/C (compound 0.949 µM): 45.2% and 48% and 39.2%; viability, T/C (compound 3 µM): 36.6% and 38.9% and 36.2%
0.0323 µM and 0.0433 µM and 0.0422 µM	Cn1ncnc1[C@H]1c2n[nH]c(=O)c3cc(F)cc(c23)N[C@@H]1c1ccc(F)cc1	53.5% and 54.3% and 57.9%	31.4% and 38.2% and 34.5%	–	–	–	71.1% and 82.5% and 93.2%	70.2% and 73% and 67.9%	viability, T/C (compound 0.000316 µM): 101% and 86.7% and 96.2%; viability, T/C (compound 0.001 µM): 86.5% and 84.3% and 90.5%
0.0457 µM and 0.0482 µM and 0.0542 µM	NC(=O)C(=Cn1cnc(-c2cc(C(F)(F)F)cc(C(F)(F)F)c2)n1)c1cncnc1	–	–	–	–	–	–	–	viability, T/C (compound 0.000949 µM): 87.5% and 102% and 84.6%; viability, T/C (compound 0.003 µM): 85.7% and 110% and 93.3%; viability, T/C (compound 0.00949 µM): 101% and 108% and 96.6%; viability, T/C (compound 0.03 µM): 74.1% and 79.4% and 91.7%; viability, T/C (compound 0.0949 µM): 8.08% and 8.06% and 10.7%; viability, T/C (compound 0.3 µM): 3% and 0.88% and 1.21%
> 0.1 µM	NC1CCC(NC2CC2c2ccccc2)CC1 (stereo not given)	130% and 120% and 127%	122% and 110% and 125%	–	–	–	118% and 117% and 122%	127% and 125% and 122%	viability, T/C (compound 0.000316 µM): 128% and 119% and 118%; viability, T/C (compound 0.001 µM): 129% and 116% and 126%
5.07 µM and 4.97 µM and 5.4 µM	O=C(c1cc(Cc2n[nH]c(=O)c3ccccc23)ccc1F)N1CCN(C(=O)C2CC2)CC1	99.2% and 96.5% and 98%	113% and 117% and 108%	102% and 115% and 97.6%	98.8% and 98.3% and 107%	19.2% and 17.5% and 20.8%	–	–	viability, T/C (compound 3.16 µM): 71.3% and 71.5% and 75.3%
0.255 µM and 0.113 µM and 0.102 µM	O=C(c1ccc(F)c(F)c1Nc1ccc(I)cc1F)N1CC(O)([C@@H]2CCCCN2)C1	73.9% and 62.5% and 68.7%	69.7% and 54.8% and 47.7%	45.6% and 36.5% and 35.7%	18.4% and 15.1% and 17.1%	–	94% and 88.7% and 94.3%	89.3% and 77.1% and 88.9%	–
